As usually defined, the IC50 is the concentration that gives 50% inhibition.

We go through four molecules from ChEMBL document CHEMBL2150939, “Synthesis and cytotoxicity of novel ursolic acid derivatives containing an acyl piperazine moiety” (Eur J Med Chem, 2012).

Data set [1] deals with MGC-803. As to the kind of experiment: Growth inhibition of human MGC803 cells at 10 uM after 72 hrs by MTT assay. It is filed as functional. As to conditions: MGC-803, 72 h, read-out: GI.
Data set [2] relates to Bcap37. As to the kind of experiment: Growth inhibition of human Bcap37 cells at 10 uM after 72 hrs by MTT assay. It counts as functional. As to conditions: Bcap37, 72 h, read-out: GI. (Tetrazolium dyes change colour on reduction, which living cells bring about.)
Data set [3] in a line: Growth inhibition of mouse NIH/3T3 cells at 10 uM after 72 hrs by MTT assay. It counts as cell-based, NIH3T3. Particulars: read-out: GI.
The subject of data set [4] is MGC-803. As to the kind of experiment: Antiproliferative activity against human MGC803 cells after 72 hrs by MTT assay. It is filed as functional, cell-based. As to conditions: MGC-803, 72 h.
The subject of data set [5] is Bcap37. As to the kind of experiment: Antiproliferative activity against human Bcap37 cells after 72 hrs by MTT assay. As to conditions: Bcap37, 72 h, read-out: IC50. It counts as functional, cell-based.
Data set [6] relates to MGC-803. As to the kind of experiment: Induction of apoptosis in human MGC803 cells assessed as pyknosis at 5 uM after 12 to 48 hrs by acridine orange/ethidium bromide staining. It counts as functional, cell-based.
Data set [7] concerns MGC-803. As to the kind of experiment: Induction of apoptosis in human MGC803 cells assessed as early apoptotic cells at 5 uM after 24 hrs by acridine orange/ethidium bromide staining. It is filed as functional, cell-based.
The subject of data set [8] is MGC-803. As to the kind of experiment: Induction of apoptosis in human MGC803 cells assessed as late apoptotic cells at 5 uM after 48 hrs by acridine orange/ethidium bromide staining. It is filed as functional, cell-based.
Data set [9] concerns MGC-803. As to the kind of experiment: Induction of apoptosis in human MGC803 cells assessed as condensed chromatin at 5 uM after 12 to 48 hrs by Hoechst 33258 staining. It counts as functional, cell-based.
In data set [10] the test system is MGC-803. As to the kind of experiment: Induction of apoptosis in human MGC803 cells assessed as DNA fragmentation at 2.5 to 10 uM after 24 hrs by TUNEL assay. It is filed as functional, cell-based.
Data set [11] relates to MGC-803. As to the kind of experiment: Induction of apoptosis in human MGC803 cells assessed as early and late apoptotic level at 10 uM after 12 hrs by annexinV/FITC-PI staining-based flow cytometric analysis. It counts as functional. On the technique in general: A flow cytometer gives signals particle by particle.
In data set [12] the test system is MGC-803. As to the kind of experiment: Induction of apoptosis in human MGC803 cells assessed as early and late apoptotic level at 10 uM after 24 hrs by annexinV/FITC-PI staining-based flow cytometric analysis. It counts as functional.
Data set [13] relates to MGC-803. As to the kind of experiment: Induction of apoptosis in human MGC803 cells assessed as early and late apoptotic level at 10 uM after 36 hrs by annexinV/FITC-PI staining-based flow cytometric analysis. It counts as functional.
Data set [14] has as its system MGC-803. As to the kind of experiment: Induction of apoptosis in human MGC803 cells at 10 uM by annexinV/FITC-PI staining-based flow cytometric analysis. It is filed as functional, cell-based. As to conditions: TDE = time-dependent effect.
The test system of data set [15] is MGC-803. As to the kind of experiment: Induction of apoptosis in human MGC803 cells assessed as membrane blebbing at 5 uM after 12 to 48 hrs by acridine orange/ethidium bromide staining. It counts as functional, cell-based.
Data set [16] has as its system MGC-803. As to the kind of experiment: Induction of apoptosis in human MGC803 cells assessed as cell budding at 5 uM up to 48 hrs by acridine orange/ethidium bromide staining. It is filed as functional, cell-based.
The subject of data set [17] is MGC-803. As to the kind of experiment: Induction of apoptosis in human MGC803 cells assessed as cell budding at 5 uM at 24 hrs by acridine orange/ethidium bromide staining.
Data set [18] deals with MGC-803. As to the kind of experiment: Induction of apoptosis in human MGC803 cells assessed as pyknosis at 10 uM after 48 hrs by acridine orange/ethidium bromide staining. It counts as functional, cell-based.
For data set [19], the system named is MGC-803. As to the kind of experiment: Induction of apoptosis in human MGC803 cells assessed as condensed chromatin at 10 uM after 48 hrs by Hoechst 33258 staining. It is filed as functional, cell-based.
The test system of data set [20] is MGC-803. As to the kind of experiment: Induction of apoptosis in human MGC803 cells assessed as DNA fragmentation at 10 uM after 24 hrs by TUNEL assay. It is filed as functional, cell-based.
Data set [21] deals with MGC-803. As to the kind of experiment: Induction of apoptosis in human MGC803 cells assessed as membrane blebbing at 10 uM after 48 hrs by acridine orange/ethidium bromide staining. It is filed as functional, cell-based.
Data set [22] concerns MGC-803. As to the kind of experiment: Induction of apoptosis in human MGC803 cells assessed as cell budding at 10 uM after 48 hrs by acridine orange/ethidium bromide staining. It counts as functional, cell-based.
Data set [23] relates to MGC-803. As to the kind of experiment: Induction of apoptosis in human MGC803 cells at 10 uM after 48 hrs by acridine orange/ethidium bromide staining. It counts as functional, cell-based.

Calls of active or inactive are those of the source. The calls are words filed in the database; no cut-off is given here.

Consider `C[C@H]1[C@H](C)CC[C@]2(C(=O)OCCN3CCN(C(=O)c4c(Cl)cccc4Cl)CC3)CC[C@]3(C)C(=CC[C@@H]4[C@@]5(C)CC[C@H](O)C(C)(C)[C@@H]5CC[C@]43C)[C@H]12`, for which the values for the inhibition of growth at 10 µM in the data set on MGC-803 [1] and in the data set with Bcap37 [2] were 95.6% and 76%, respectively. Moreover, the inhibition at 72 h, 10 µM in data set [3] was determined as 32.1%. For the same molecule, the IC50 in the data set on MGC-803 [4] came out at 2.5 µM; with Bcap37 [5], 9.24 µM. Besides, the result in the data set on MGC-803 [6], with MGC-803 [7], in the data set on MGC-803 [8], in the data set on MGC-803 [9], in the data set with MGC-803 [10] and with MGC-803 [15] was Active. In addition, the result with MGC-803 [16] and in the data set with MGC-803 [17] was Active. Further, the Activity in the data set with MGC-803 [11] was 23.57%; with MGC-803 [12], 28.01%; with MGC-803 [13], 33.35%; in the data set on MGC-803 [14], “tde”.

Take `C[C@H]1[C@H](C)CC[C@]2(C(=O)O)CC[C@]3(C)C(=CC[C@@H]4[C@@]5(C)CC[C@H](O)C(C)(C)[C@@H]5CC[C@]43C)[C@H]12` [URSOLIC ACID]: the inhibition of growth at 10 µM with MGC-803 [1] worked out at 28.9%; with Bcap37 [2], 11.9%. Besides, the inhibition at 72 h, 10 µM in data set [3] is 14%. In addition, the IC50 in the data set with MGC-803 [4] worked out at 24.3 µM; in the data set on Bcap37 [5], 28.7 µM. Besides, the result with MGC-803 [18], in the data set with MGC-803 [19], in the data set on MGC-803 [20], in the data set with MGC-803 [21] and in the data set with MGC-803 [22] was Active.

Regarding `C[C@H]1[C@H](C)CC[C@]2(C(=O)OCCN3CCN(C(=O)c4ccc(F)cc4F)CC3)CC[C@]3(C)C(=CC[C@@H]4[C@@]5(C)CC[C@H](O)C(C)(C)[C@@H]5CC[C@]43C)[C@H]12`, the inhibition of growth at 10 µM in the data set on MGC-803 [1] came out at 32.1%; in the data set with Bcap37 [2] it was 60.5%. Also, in data set [3], the inhibition at 72 h, 10 µM worked out at 18.1%. In addition, the half-inhibitory concentration (IC50) is 12.5 µM in the data set on MGC-803 [4] and 8.31 µM with Bcap37 [5].

As to `CC[C@@]1(O)C(=O)OCc2c1cc1n(c2=O)Cc2cc3cc(O)ccc3nc2-1` [HYDROXYCAMPTOTHECIN], the inhibition of growth at 10 µM in the data set with MGC-803 [1] came to 29.1%; in the data set on Bcap37 [2] it was 28.1%. Also, in data set [3], the inhibition at 72 h, 10 µM was determined as 9.3%. For the same molecule, the concentration for half-maximal inhibition (IC50) with MGC-803 [4] and with Bcap37 [5] was over 20 µM each time. Also, the result in the data set with MGC-803 [23], with MGC-803 [19] and with MGC-803 [20] was Active. Further, the Activity with MGC-803 [11] is given as 17.37%; in the data set on MGC-803 [12], 18.66%; with MGC-803 [13], 24.95%.
